Experimental findings from ChEMBL document CHEMBL2424636, “Synthesis and anticancer activity evaluation of new 1,2,3-triazole-4-carboxamide derivatives” (2013) are described below.

Common to all, as to assay type: functional
For one assay, the system named is MDA-MB-468. The assay is described as follows: Cytotoxicity against human MDA-MB-468 cells assessed as cell growth at 10^-5 M after 48 hrs by SRB assay. The following applies: MDA-MB-468, 48 h, read-out: Activity.
A further assay concerns IGROV-1. The experiment in a line: Cytotoxicity against human IGROV1 cells assessed as cell growth at 10^-5 M after 48 hrs by SRB assay. The settings on record: IGROV-1, 48 h, read-out: Activity.
For the next assay, the system named is SNB-75. The assay is described as follows: Cytotoxicity against human SNB75 cells assessed as cell growth at 10^-5 M after 48 hrs by SRB assay. The settings on record: SNB-75, 48 h, read-out: Activity.
Another assay has as its system SF-539. The experiment in a line: Cytotoxicity against human SF539 cells assessed as cell growth at 10^-5 M after 48 hrs by SRB assay. The following applies: SF-539, 48 h, read-out: Activity.
In another assay the test system is NCI-H522. The assay is described as follows: Cytotoxicity against human NCI-H522 cells assessed as cell growth at 10^-5 M after 48 hrs by SRB assay. The following applies: NCI-H522, 48 h, read-out: Activity.
The next assay deals with HOP-92. The assay is described as follows: Cytotoxicity against human HOP92 cells assessed as cell growth at 10^-5 M after 48 hrs by SRB assay. The following applies: HOP-92, 48 h, read-out: Activity.
Another assay relates to CAKI-1. The assay is described as follows: Cytotoxicity against human Caki1 cells assessed as cell growth at 10^-5 M after 48 hrs by SRB assay. The settings on record: CAKI-1, 48 h, read-out: Activity.
A further assay deals with A549. The assay is described as follows: Cytotoxicity against human A549/ATCC cells assessed as cell growth at 10^-5 M after 48 hrs by SRB assay. The following applies: A549, 48 h, read-out: Activity.

For `COc1cccc(NC(=O)c2nnn(-c3ccc4noc(-c5ccc(Cl)cc5)c4c3)c2C)c1`, the growth at 10 µM with MDA-MB-468 came out at 56.6%; with IGROV-1 it was 49.9%; in the assay on SNB-75, 46.6%; in the assay with SF-539 it was 54.1%; in the assay on NCI-H522, 62%; in the assay on HOP-92, 61.5%.

For `Cc1c(C(=O)Nc2ncc(Cc3ccccc3)s2)nnn1-c1ccccc1`, the growth at 10 µM in the assay on CAKI-1 came to 80%; in the assay with A549, 80.3%.
